A short description of data set [1]: A549 cell cytotoxicity, dose response, cytotoxicity control, plate reader, cherry-pick, antagonist series (AID 743412). The class given is functional, cell-based.
Data set [2] can be described thus: HepG2 cell cytotoxicity, dose response, cytotoxicity control, plate reader, cherry-pick, antagonist series (AID 743416). The class given is functional, cell-based.
Data set [3] can be described thus: LGR2 antagonists, dose response, cell-based, HEK293, CRE-luciferase reporter, cherry pick, set 2 (AID 743343).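 Further: transfected cells were stimulated with diluted bursicon conditioned medium after compound addition.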 The class given is functional. A general note: A reporter such as luciferase makes a cellular process visible.
Data set [4] is described as follows: HEK293 cell cytotoxicity, dose response, cytotoxicity control, plate reader, cherry-picked samples (AID 743446). The class given is functional, cell-based.
In a further data set the test system is Vero. The data set can be described thus: cells. In kind it is functional. To be noted: Chlorocebus sabaeus.
A short description of data set [5]: MC4R antagonists, dose response, counter-screen for LGR2 antagonist project, cell-based, plate reader, cherry pick (AID 743444).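 Further: transfected HEK 293 cells stimulated with alpha-MSH peptide; potency of inhibitors of the alpha-MSH evoked signal.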 In kind it is functional.
The target in a further data set is Cytochrome P450 3A4 (Homo sapiens, UniProt P08684).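 Further: CYP3A4 tested as one member of a cytochrome P450 panel screen.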
The target of data set [6] is T1, Ubiquitin-conjugating enzyme E2 N (Homo sapiens, UniProt P61088).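 Further: Dose-response confirmation in a TR-FRET assay detecting UBC13-driven polyubiquitin chain formation, inhibition measured.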
T1 sequence (P61088 whole entry): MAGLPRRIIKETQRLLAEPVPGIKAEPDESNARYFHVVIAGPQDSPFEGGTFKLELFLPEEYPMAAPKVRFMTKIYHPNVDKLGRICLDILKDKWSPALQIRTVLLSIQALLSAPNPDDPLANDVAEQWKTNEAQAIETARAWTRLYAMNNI
In kind it is functional.

Another data set relates to HeLa. The data set is described as follows: HeLa cell cytotoxicity, dose response, cytotoxicity control for MITF activator project, CellTiter-Glo luminescence, cherry-pick samples (AID 540259). In kind it is functional, cell-based. To be noted: Homo sapiens.
The target of data set [7] is T2, Replicative DNA helicase DnaB (Mycobacterium tuberculosis, UniProt P9WMR3).
T2 sequence (P9WMR3 whole entry): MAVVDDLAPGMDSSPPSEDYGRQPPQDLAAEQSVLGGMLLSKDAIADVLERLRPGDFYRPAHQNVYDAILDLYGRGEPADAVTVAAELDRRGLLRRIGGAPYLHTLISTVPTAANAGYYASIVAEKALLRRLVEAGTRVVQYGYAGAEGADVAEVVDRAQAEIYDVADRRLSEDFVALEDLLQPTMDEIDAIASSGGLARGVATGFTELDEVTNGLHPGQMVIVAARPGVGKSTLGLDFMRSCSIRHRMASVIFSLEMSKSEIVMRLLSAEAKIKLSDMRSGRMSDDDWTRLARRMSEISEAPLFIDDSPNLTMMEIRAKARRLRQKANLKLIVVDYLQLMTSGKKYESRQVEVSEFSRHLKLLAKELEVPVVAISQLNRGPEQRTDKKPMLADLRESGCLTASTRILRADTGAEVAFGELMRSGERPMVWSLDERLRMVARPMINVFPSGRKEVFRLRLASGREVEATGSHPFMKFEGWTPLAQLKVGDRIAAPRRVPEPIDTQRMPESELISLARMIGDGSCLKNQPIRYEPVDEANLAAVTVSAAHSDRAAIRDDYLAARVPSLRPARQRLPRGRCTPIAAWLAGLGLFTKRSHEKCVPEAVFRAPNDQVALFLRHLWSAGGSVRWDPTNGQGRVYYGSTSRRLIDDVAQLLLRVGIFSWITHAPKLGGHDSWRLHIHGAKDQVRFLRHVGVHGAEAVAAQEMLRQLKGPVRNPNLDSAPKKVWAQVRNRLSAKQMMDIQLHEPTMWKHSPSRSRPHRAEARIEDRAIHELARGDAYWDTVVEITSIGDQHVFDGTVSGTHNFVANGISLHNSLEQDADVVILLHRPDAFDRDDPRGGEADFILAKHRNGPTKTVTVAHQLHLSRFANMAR
The data set can be described thus: DnaB intein splicing inhibitors, dose response, biochemical, cell-free fluorescence (AID 449749). The class given is functional.

In a further data set the target is T3, Protein RecA (Mycobacterium tuberculosis, UniProt P9WHJ3).
T3 sequence (P9WHJ3 whole entry): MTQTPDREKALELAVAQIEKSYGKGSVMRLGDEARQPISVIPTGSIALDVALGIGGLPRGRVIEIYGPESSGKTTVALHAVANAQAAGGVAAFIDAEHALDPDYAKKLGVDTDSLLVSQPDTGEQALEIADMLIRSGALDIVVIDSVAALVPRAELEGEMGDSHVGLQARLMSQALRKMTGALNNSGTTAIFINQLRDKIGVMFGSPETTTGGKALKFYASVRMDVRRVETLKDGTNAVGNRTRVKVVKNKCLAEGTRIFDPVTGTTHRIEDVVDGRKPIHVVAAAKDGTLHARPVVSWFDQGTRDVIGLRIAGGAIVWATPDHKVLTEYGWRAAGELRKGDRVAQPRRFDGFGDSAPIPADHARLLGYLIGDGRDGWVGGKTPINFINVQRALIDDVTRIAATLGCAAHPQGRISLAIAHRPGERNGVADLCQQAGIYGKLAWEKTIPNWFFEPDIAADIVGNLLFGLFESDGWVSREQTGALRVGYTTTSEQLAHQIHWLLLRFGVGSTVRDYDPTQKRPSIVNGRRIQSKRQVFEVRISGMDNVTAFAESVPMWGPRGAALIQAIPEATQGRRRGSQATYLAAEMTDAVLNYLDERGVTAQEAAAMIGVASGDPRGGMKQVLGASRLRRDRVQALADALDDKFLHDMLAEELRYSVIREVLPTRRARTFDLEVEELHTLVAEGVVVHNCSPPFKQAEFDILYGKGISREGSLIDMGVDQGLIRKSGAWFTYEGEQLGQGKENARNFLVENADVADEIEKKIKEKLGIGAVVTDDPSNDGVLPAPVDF
The data set can be described thus: Fluorescence Cell-Free Homogeneous Dose Retest to Identify Inhibitors of RecA-Intein Splicing Activity. [Related pubchem assays (depositor defined):AID2097, AID2223, AID489010, AID492950]. In kind it is functional.

Data set [8] has as its target T4, Microphthalmia-associated transcription factor (Homo sapiens, UniProt O75030).
T4 sequence (O75030 whole entry): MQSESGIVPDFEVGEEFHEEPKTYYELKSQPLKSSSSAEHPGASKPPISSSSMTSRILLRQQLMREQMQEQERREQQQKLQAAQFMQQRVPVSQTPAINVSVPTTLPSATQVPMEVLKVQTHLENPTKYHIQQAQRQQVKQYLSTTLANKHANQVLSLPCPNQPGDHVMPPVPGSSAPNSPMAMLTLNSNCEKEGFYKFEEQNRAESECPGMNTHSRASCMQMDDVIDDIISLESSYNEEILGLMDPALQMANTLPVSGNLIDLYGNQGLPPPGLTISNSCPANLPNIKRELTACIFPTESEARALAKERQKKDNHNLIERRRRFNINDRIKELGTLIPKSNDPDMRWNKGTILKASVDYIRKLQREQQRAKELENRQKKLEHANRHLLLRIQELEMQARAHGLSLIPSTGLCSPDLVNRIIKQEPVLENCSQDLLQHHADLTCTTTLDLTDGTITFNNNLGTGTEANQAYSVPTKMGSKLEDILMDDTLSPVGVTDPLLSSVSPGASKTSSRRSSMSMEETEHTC
The data set can be described thus: TRPM1 promoter luciferase signal decrease, dose response, MITF inhibitor project, cell-based, SK-MEL-5, cherry-picked, set 3 (AID 493073).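 Further: SK-MEL-5 melanoma cells with luciferase driven by the MITF target TRPM1 promoter.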 The class given is functional.

The target of a further data set is Troponin, cardiac muscle (Homo sapiens, UniProt P19429+P45379+P63316). The data set can be described thus: Fluorescence-based biochemical high throughput dose response assay for activators of the calcium sensitivity of cardiac Regulated Thin Filaments (RTF). [Related pubchem assays (depositor defined):AID493008, AID493018, AID504382, AID504383]. The class given is protein-complex assay.

The subject of a further data set is H4. The data set is described as follows: Luminescence Cell-Based Dose Response HTS to Identify Activators of 5'UTR Stem-Loop Driven Prion Protein mRNA Translation in H4 Neuroglioblastoma Cells. [Related pubchem assays: 1829 (Project Summary), 1814 (Primary HTS)]. The class given is functional. To be noted: Homo sapiens.
Data set [9] can be described thus: Luminescence Cell-Based Dose Response HTS to Identify Activators of Luciferase Translation or Activity in H4 […] Cells. [Related pubchem assays: 1829 (Project Summary), 1814 (Primary HTS)]. In kind it is functional.
The test system of the next data set is HEK293. The data set is described as follows: inhibitors of LMP1-driven NF-kB reporter, dose response, cell-based, HEK293, luciferase, cherry-pick (AID 588343). In kind it is functional. The conditions noted are these: Homo sapiens.
Data set [10] in a line: Luminescence Cell-Based Dose Retest to Confirm Inhibitors of Cancer Stem Cells. [Related pubchem assays (depositor defined):AID2717, AID2721]. In kind it is functional. The conditions noted are these: Homo sapiens.
Data set [11] concerns the target T5, Alkaline phosphatase, tissue-nonspecific isozyme (Homo sapiens, UniProt P05186).
T5 sequence (P05186 whole entry): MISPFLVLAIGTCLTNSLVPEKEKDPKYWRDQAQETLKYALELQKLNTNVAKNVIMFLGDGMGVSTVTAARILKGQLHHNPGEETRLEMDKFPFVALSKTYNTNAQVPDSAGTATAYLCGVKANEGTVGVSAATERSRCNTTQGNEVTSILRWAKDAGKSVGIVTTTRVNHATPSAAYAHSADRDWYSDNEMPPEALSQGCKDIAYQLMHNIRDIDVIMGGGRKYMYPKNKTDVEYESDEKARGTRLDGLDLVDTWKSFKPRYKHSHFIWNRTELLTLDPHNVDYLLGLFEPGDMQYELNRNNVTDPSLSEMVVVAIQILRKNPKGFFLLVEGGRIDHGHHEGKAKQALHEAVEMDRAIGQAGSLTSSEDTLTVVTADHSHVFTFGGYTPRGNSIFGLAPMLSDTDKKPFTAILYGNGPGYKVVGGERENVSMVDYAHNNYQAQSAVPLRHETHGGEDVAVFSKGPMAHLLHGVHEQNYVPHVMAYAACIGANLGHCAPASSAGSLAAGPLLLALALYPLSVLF
The data set is described as follows: human TNAP enzyme inhibitors, SAR follow-up, biochemical, luminescent, dose response (AID 1056).

For data set [12], the target named is Glyceraldehyde-3-phosphate dehydrogenase (Homo sapiens, UniProt P04406).
The nature of data set [13]: cytotoxicity toward NIH3T3 fibroblasts, dose response, counter-screen, cell-based, ATP luminescence, mouse fibroblasts (AID 2010).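 Further: cells exposed to compound for about 90 hours before reading.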 In kind it is functional.
Data set [14] in a line: inhibitors of intracellular T. cruzi replication, confirmation, NIH3T3 host cells, beta-gal luminescence (AID 2044).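 Further: intracellular parasites grown in NIH/3T3 mouse fibroblasts as host cells; luminescent beta-galactosidase reporter signal from transgenic T. cruzi replicating inside host cells; inhibitors lower the luminescence signal.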 The class given is functional, cell-based.
The next data set addresses Cytochrome P450 2C9 (Homo sapiens, UniProt P11712).

Activity calls are given as the source filed them.

`O=C(Cc1nc2ccccc2[nH]1)c1cccc([N+](=O)[O-])c1`: the concentration at half-maximal activity (AC50) (usually the midpoint of the concentration-response curve, whichever way the signal moves) is 20.7 µM (active) in data set [1]; 11.2 µM (active) in data set [2]; 4.47 µM (active) in data set [3]; 12.1 µM (active) in data set [4]; 5.45 µM (active) in data set [5]. In addition, the CC50 – broadly, the concentration that lowers cell viability or growth by half – in the data set on Vero is 6.19 µM (active). As for `COC(=O)N1CCC2(CC1)CCN(c1ncccn1)CC2`, the AC50 entry on Cytochrome P450 3A4 was “inconclusive”. On to `COc1ccc(C[C@@H]2CN3C(=NC[C@@H]3Cc3ccc(O)cc3)N2C[C@H](C)NC(=O)CCC2CCCCC2)cc1`, for which the IC50 (as a rule, the concentration that gives 50% inhibition) in [6] is > 20 µM (inactive). `Cn1c2ccccc2c(=O)c2ccc(-c3ccc4c(c3)OCO4)cc21`: in the data set with HeLa, the AC50 is 46.6 µM (active).

Take `CN(C(=O)C(Cl)Cl)c1ccc(OC(=O)c2ccco2)cc1` [DILOXANIDE FUROATE]: the results for the AC50 (in [7]; at Cytochrome P450 3A4) were 13.9 µM (active) and “inconclusive”, respectively. Further, the EC50 – broadly, the concentration needed to bring the measured effect to its halfway point – at Protein RecA was 10.3 µM (active). For the molecule `COc1cc(OC)cc(-c2oc(=O)c3cc(OC)c(OC)cc3c2C(F)(F)F)c1`, in data set [8], the AC50 was 12.8 µM (active). As to `COc1ccc(CCNC(=O)COC(=O)c2cc(=O)[nH]c3ccccc23)cc1`, at Troponin, cardiac muscle, the EC50 is > 71.5 µM (inactive). In the case of `Cn1c(C(=O)NCCc2c[nH]c3ccccc23)cc2sccc21`, the values for the EC50 (in the data set with H4; in data set [9]) were 14.7 µM (active) and 21.7 µM (active), respectively. The AC50 with HeLa was 239 µM (active). As for `N#Cc1c(NC(=O)CCCC(=O)O)sc2c1CCCCC2`, the AC50 in the data set on HEK293 was 4.36 µM (active). Regarding `CC1=NN(c2ccccc2)C(=O)/C1=C/C=C/c1ccccc1`, the half-maximal cytotoxic concentration (CC50) with Vero is 11.3 µM (active). In addition, the AC50 in data set [10] is 2.41 µM (active). Take `Cc1ccccc1-n1nnnc1SCC(C)C`: the EC50 on Troponin, cardiac muscle was > 71.5 µM (inactive). For `COc1ccc(S(=O)(=O)Nc2cnc3ccccc3c2)cc1OC`, the IC50 in data set [11] was > 100 µM (inactive); in data set [12], > 100 µM (not active). For `CCN(CC)S(=O)(=O)c1cccc(C(=O)N/N=C/c2ccc([N+](=O)[O-])o2)c1`, the AC50 in [8] was 14.1 µM (active). The figures for the EC50 in data set [13] and in [14] were 13.3 µM (active) and 0.218 µM (active), respectively.

Consider `O=C(CCNc1ccccc1)c1ccc2c(c1)OCO2`, for which the AC50 with HeLa was 111 µM (active).

With `COc1ccccc1-c1nnc(SCc2nc3ccccc3s2)n1C`, the EC50 at Troponin, cardiac muscle was > 71.5 µM (inactive). Turning to `CCC(C(=O)NC1CCCC1)N(C(=O)c1snc(C(N)=O)c1N)c1ccc(OC)cc1` (centres undefined), the IC50 in data set [6] is > 20 µM (inactive). Take `Cc1ccc(-c2cc(C(=O)O)[nH]n2)cc1C`: the half-maximal inhibitory concentration (IC50) is 62.9 µM (active) in [11] and > 100 µM (not active) in [12].

With `CC1CCC(NC(=O)c2cc3ccccc3cc2O)CC1` (centres undefined), in the data set on HeLa, the half-maximal activity concentration (AC50) was 35.2 µM (active). In the case of `Cn1c(=N)c(S(=O)(=O)c2ccc(F)cc2)cc2c(=O)n3ccccc3nc21`, the AC50 entry was “inconclusive” on Cytochrome P450 3A4 and 17.8 µM (inconclusive) at Cytochrome P450 2C9.
